Among the data in patent US9914730B2, “Azaquinazoline inhibitors of Atypical protein Kinase C” (Ignyta, Inc., priority 2012, dated 2018) are IC50 values, retold here.

This experiment has as its target T1, full-length human PKCι (Homo sapiens, UniProt P41743).
T1 construct: Recombinant, full-length human PKCι expressed in Sf21 insect cells is also commercially available; purchased; host or cells: Sf21 insect cells
T1 sequence (P41743 1-596): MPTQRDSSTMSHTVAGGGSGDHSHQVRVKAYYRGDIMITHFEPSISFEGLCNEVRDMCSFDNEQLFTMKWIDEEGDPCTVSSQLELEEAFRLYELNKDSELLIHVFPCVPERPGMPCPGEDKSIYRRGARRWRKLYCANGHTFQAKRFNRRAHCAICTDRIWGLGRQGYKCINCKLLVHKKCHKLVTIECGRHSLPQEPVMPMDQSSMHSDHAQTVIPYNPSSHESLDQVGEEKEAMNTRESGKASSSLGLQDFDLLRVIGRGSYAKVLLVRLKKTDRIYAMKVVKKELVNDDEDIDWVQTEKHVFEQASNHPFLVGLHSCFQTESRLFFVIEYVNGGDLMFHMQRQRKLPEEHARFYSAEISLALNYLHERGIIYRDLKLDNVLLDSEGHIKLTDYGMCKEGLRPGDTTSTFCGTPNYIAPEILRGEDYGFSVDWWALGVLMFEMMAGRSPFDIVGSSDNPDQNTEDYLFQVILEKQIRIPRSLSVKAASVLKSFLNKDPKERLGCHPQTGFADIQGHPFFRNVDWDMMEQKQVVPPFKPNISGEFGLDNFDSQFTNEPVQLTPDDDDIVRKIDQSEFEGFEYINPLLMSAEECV
Description: PKCι IC50 IMAP assay, full-length PKCι at 150 μM ATP. Type of experiment: biochemical. The note with it: read-out: IC50 in IMAP assay against full length PKCi at 150 μM ATP. The source says: Assays are based on the ability of PKCι to phosphorylate a commercially available peptide substrate in vitro. The peptide substrate is FAM-PKCε pseudopeptide derived peptide, and comprises the amino acid sequence 5FAM-[…]-NH2. Recombinant, full-length human PKCι expressed in Sf21 insect cells is also commercially available. Recombinant, kinase-domain human PKCι is expressed and purified in-house.
The procedure below explains how dose response curves for inhibitors of PKCι are obtained. The screen described is for a 384 well format but the assay can be adapted to 1536 or other formats as required.
Compounds to be tested are dissolved in 100% DMSO. Compounds are diluted as required to give a final concentration of 4% DMSO (v/v) in the assay. 1 μl is plated into 384 well black low-binding flat bottomed assay plates which are used immediately. Dilutions and additions of compound to assay plates are carried out using Matrix WellMate® and Matrix PlateMate® Plus liquid handling systems.
On the day of the screen PKCι/substrate working solution, and ATP working solution, are prepared in buffer containing 20 mM tris-HCl pH7.5, 10 mM MgCl2, 0.01% Triton X100, 250 μM EGTA and 1 mM DTT. The final concentration of PKCι used varies depending on the batch of protein but is typically 15 pM. The final concentration of peptide substrate in the assay is 100 nM. ATP is used at a final concentration of 150 μM or 25 μM in the assays containing full-length or kinase-domain PKCι respectively, which corresponds to five times or equal to the KM^APP for ATP for each enzyme, respectively. The final buffer concentration in the assay is 18 mM tris-HCl pH7.5, 9 mM MgCl2, 0.009% Triton X100, 225 μM EGTA and 0.9 mM DTT. Relevant controls are included, namely no compound and no enzyme. 5 μl PKCι/substrate working solution at 30 pM and 200 nM, respectively, is added to the wells, followed by 4 μl ATP working solution at 375 μM or 62.5 μM for full-length or kinase-domain PKCι respectively, using a 16 channel Matrix pipette. The reaction is allowed to incubate for 60 minutes at room temperature, before the reaction is stopped and developed by the addition of 20 μl IMAP™ development reagent (Molecular Devices). IMAP development reagent consists of 0.25% (v/v) IMAP progressive binding reagent, 17% (v/v) IMAP progressive binding buffer A and 3% (v/v) IMAP progressive binding buffer B. The plates are then incubated for 2 hours at room temperature before being read using an appropriate plate reader, for example a Molecular Devices HT Analyst or a BMG Pherastar. Plates are read using a fluorescence polarisation protocol with excitation at 485 nm and emission at 530 nm, and dichroic mirror at 505 nm.
Percentage inhibition values are calculated from fluorescence polarisation values, using the no compound and no enzyme control values as 0% and 100% inhibition, respectively. IC50 determination is performed with ExcelFit software (IDBS) using curve fit 205. Z′ factors are determined for each plate tested and are all above 0.5.

As a reminder, the IC50 is the concentration at which inhibition is half-maximal. In the case of `COc1cncc2nc(-c3ccnc(Nc4cccc(N5CCOCC5)c4)c3)nc(N[C@@H]3CCNC3)c12` [Example 227, {5-Methoxy-2-[2-(3-morpholin-4-yl-phenylamino)-pyridin-4-yl]-pyrido[3,4-d]pyrimidin-4-yl}-(R)-pyrrolidin-3-yl-amine], the IC50 is under 100 nM.

For the compound `N[C@H](CNc1nc(-c2ccncc2)nc2c(-c3cccc(O)c3)nccc12)Cc1ccccc1` [Example 92, 3-(4-{[(2S)-2-amino-3-phenylpropyl]-amino}-2-(pyridin-4-yl)-pyrido[3,4-d]-pyrimidin-8-yl)phenol], the IC50 was 1000 to 10000 nM.

`COc1cncc2nc(-c3ccncc3)nc(N3CCNC(CF)C3)c12` (stereo not shown) [Example 54, 3-(fluoromethyl)-1-[5-methoxy-2-(pyridin-4-yl)-pyrido[3,4-d]-pyrimidin-4-yl]-piperazine]: the IC50 was 1000 to 10000 nM. As to `O=C(Nc1cc(-c2nc(N3CCNCC3)c3c(C4CC4)cncc3n2)ccn1)C1CC1` [Example 584, Cyclopropane-carboxylic acid [4-(5-cyclopropyl-4-piperazin-1-yl-pyrido[3,4-d]pyrimidin-2-yl)-pyridin-2-yl]-amide], the IC50 was under 100 nM. In the case of `c1cc2c(N3CCNCC3)nc(-c3ccnc4[nH]ccc34)nc2cn1` [Example 1207, 4-Piperazin-1-yl-2-(1H-pyrrolo[2,3-b]pyridin-4-yl)-pyrido[3,4-d]pyrimidine], the IC50 was in the range of 100 to 1000 nM. Regarding `Fc1cc(F)c(Nc2cc(-c3nc(NC4CCNC4)c4c(C5CC5)cncc4n3)ccn2)nc1F` (stereo not shown) [Example 2020, {5-Cyclopropyl-2-[2-(3,5,6-trifluoro-pyridin-2-ylamino)-pyridin-4-yl]-pyrido[3,4-d]pyrimidin-4-yl}-pyrrolidin-3-yl-amine], the IC50 is under 100 nM. Under `CN(c1nc(-c2ccnc(Nc3ncc(F)cc3F)c2)nc2cncc(C3CC3)c12)C1CCOCC1` [Example 2172, {5-Cyclopropyl-2-[2-(3,5-difluoro-pyridin-2-ylamino)-pyridin-4-yl]-pyrido[3,4-d]pyrimidin-4-yl}-methyl-(tetrahydro-pyran-4-yl)-amine] stands 1000 to 10000 nM.

`COc1cncc2nc(-c3ccnc(NC(=O)Cc4cccc(C#N)c4)c3)nc(N3CCC(O)CC3)c12` [Example 403, 2-(3-Cyano-phenyl)-N-{4-[4-(4-hydroxy-piperidin-1-yl)-5-methoxy-pyrido[3,4-d]pyrimidin-2-yl]-pyridin-2-yl}-acetamide]: the IC50 was in the range of 100 to 1000 nM.

`COc1cncc2nc(-c3ccncc3)nc(NC[C@@H](N)[C@H](F)c3ccccc3)c12` [Example 47, N-[(2R,3R)-2-amino-3-fluoro-3-phenylpropyl]-5-methoxy-2-(pyridin-4-yl)pyrido[3,4-d]-pyrimidin-4-amine]: the IC50 was under 100 nM. Regarding `c1cc(C2CC2)c2nc(Nc3cc(-c4nc(N5CCNCC5)c5c(C6CC6)cncc5n4)ccn3)nn2c1` [Example 846, [4-(5-Cyclopropyl-4-piperazin-1-yl-pyrido[3,4-d]pyrimidin-2-yl)-pyridin-2-yl]-(8-cyclopropyl-[1,2,4]triazolo[1,5-a]pyridin-2-yl)-amine], the IC50 was under 100 nM. As for `CC(Nc1cc(-c2nc(N3CCNCC3)c3c(C4CC4)cncc3n2)ccn1)c1cnn(C)c1` (stereo not shown) [Example 730, [4-(5-Cyclopropyl-4-piperazin-1-yl-pyrido[3,4-d]pyrimidin-2-yl)-pyridin-2-yl]-[1-(1-methyl-1H-pyrazol-4-yl)-ethyl]-amine], the figure is under 100 nM. Regarding `COc1cncc2nc(-c3ccnc(Nc4nc(C5CC5)cs4)c3)nc(N3CCNCC3)c12` [Example 204, (4-Cyclo-propyl-thiazol-2-yl)-[4-(5-methoxy-4-piperazin-1-yl-pyrido[3,4-d]pyrimidin-2-yl)-pyridin-2-yl]-amine], the IC50 was under 100 nM. For `O=S1(=O)CCN(c2nc(-c3ccnc4[nH]c(C(F)(F)F)cc34)nc3cncc(C4CC4)c23)CC1` [Example 1245, 5-Cyclopropyl-4-(1,1-dioxo-1λ^6-thiomorpholin-4-yl)-2-(2-trifluoromethyl-1H-pyrrolo[2,3-b]pyridin-4-yl)-pyrido[3,4-d]pyrimidine], the IC50 was 10000 to 40000 nM. As for `C[C@@H](Nc1cc(-c2nc(N3CCNCC3)c3c(C4CC4)cncc3n2)ccn1)C1CCCCC1` [Example 811, ((R)-1-Cyclohexyl-ethyl)-[4-(5-cyclopropyl-4-piperazin-1-yl-pyrido[3,4-d]pyrimidin-2-yl)-pyridin-2-yl]-amine], the figure is under 100 nM. As for `CNC(=O)C1CCN(c2nc(-c3ccnc(Nc4c(F)cccc4F)c3)nc3cncc(C4CC4)c23)CC1` [Example 669, 1-{5-Cyclopropyl-2-[2-(2,6-difluoro-phenylamino)-pyridin-4-yl]-pyrido[3,4-d]pyrimidin-4-yl}-piperidine-4-carboxylic acid methylamide], the figure is 1000 to 10000 nM. Under `N#Cc1cccc(Nc2cc(-c3nc(N4CCNCC4)c4c(C5CC5)cncc4n3)ccn2)n1` [Example 746, 6-[4-(5-Cyclopropyl-4-piperazin-1-yl-pyrido[3,4-d]pyrimidin-2-yl)-pyridin-2-ylamino]-pyridine-2-carbonitrile] stands under 100 nM. As to `Fc1cnc(Nc2cc(-c3nc(N4CC5CNCC5C4)c4c(C5CC5)cncc4n3)ccn2)c(F)c1` (stereo not shown) [Example 2132, {4-[5-Cyclopropyl-4-(hexahydro-pyrrolo[3,4-c]pyrrol-2-yl)-pyrido[3,4-d]pyrimidin-2-yl]-pyridin-2-yl}-(3,5-difluoro-pyridin-2-yl)-amine], the IC50 is under 100 nM. Under `Cc1cccc(Nc2cc(-c3nc(N4CCNCC4)c4c(C5CC5)cncc4n3)ccn2)c1F` [Example 574, [4-(5-Cyclopropyl-4-piperazin-1-yl-pyrido[3,4-d]pyrimidin-2-yl)-pyridin-2-yl]-(2-fluoro-3-methyl-phenyl)-amine] stands under 100 nM; under `CN(c1nc(-c2ccnc3[nH]c(C(F)(F)F)cc23)nc2cncc(C3CC3)c12)C1CCNCC1` [Example 2070, [5-Cyclopropyl-2-(2-trifluoromethyl-1H-pyrrolo[2,3-b]pyridin-4-yl)-pyrido[3,4-d]pyrimidin-4-yl]-methyl-piperidin-4-yl-amine], under 100 nM. In the case of `COc1ccccc1Nc1cc(-c2nc(N3CCNCC3)c3c(C4CC4)cncc3n2)ccn1` [Example 515, [4-(5-Cyclopropyl-4-piperazin-1-yl-pyrido[3,4-d]pyrimidin-2-yl)-pyridin-2-yl]-(2-methoxy-phenyl)-amine], the IC50 is under 100 nM. As for `Fc1ccc2c([nH]c3nccc(-c4nc(N5CCNCC5)c5c(C6CC6)cncc5n4)c32)c1F` [Example 2036, 4-(5-Cyclopropyl-4-piperazin-1-yl-pyrido[3,4-d]pyrimidin-2-yl)-7,8-difluoro-9H-pyrido[2,3-b]indole], the figure is under 100 nM; as for `COc1ccc(Cl)c(Nc2cc(-c3nc(N4CCNCC4)c4c(C5CC5)cncc4n3)ccn2)c1` [Example 592, (2-Chloro-5-methoxy-phenyl)-[4-(5-cyclopropyl-4-piperazin-1-yl-pyrido[3,4-d]pyrimidin-2-yl)-pyridin-2-yl]-amine], under 100 nM.
